Results published in patent US5741811A, “Polythiophene anti-tumor agents” (Purdue Research Foundation, priority 1996, dated 1998).
Where two headings read alike, the source gives them in different places.

How the values were obtained:
Assay in all cases: NCI human tumor cell line panel growth inhibition
Format in all cases: cell-based
HT29 colon cancer cells = conditions: Homo sapiens, HT-29, read-out: Log10 GI50 (converted)
UACC-257 melanoma cells = conditions: Homo sapiens, read-out: Log10 GI50 (converted)
[1] = tested on: NCI-H460 lung cancer cells; conditions: Homo sapiens, read-out: Log10 GI50 (converted)
U251 CNS cancer cells = conditions: Homo sapiens, U-251, read-out: Log10 GI50 (converted)
[2] = tested on: OVCAR-3 ovarian cancer cells; conditions: Homo sapiens; OVCAR-3, ovarian cancer; read-out: Log10 GI50 (converted)
[3] = tested on: HCT-116 colon cancer cells; conditions: Homo sapiens, read-out: Log10 GI50 (converted)
[4] = tested on: NCI-H23 lung cancer cells; conditions: read-out: Log10 GI50 (converted)
SF-295 CNS cancer cells = conditions: read-out: Log10 GI50 (converted)
[5] = tested on: HCT-15 colon cancer cells; conditions: Homo sapiens, read-out: Log10 GI50 (converted)
A-498 renal cancer cells = conditions: Homo sapiens, A498, read-out: Log10 GI50 (converted)
SF-268 CNS cancer cells = conditions: read-out: Log10 GI50 (converted)
[6] = tested on: NCI-H322M lung cancer cells; conditions: Homo sapiens, read-out: Log10 GI50 (converted)
[7] = tested on: OVCAR-8 ovarian cancer cells; conditions: Homo sapiens, read-out: Log10 GI50 (converted)
Experimental: (§1) The first screen measures the cytotoxicity against a panel of sixty different human tumor cell lines. This assay provides data regarding the general cytotoxicity of an individual compound.
(§2) The length of a bar is indicative of differential cytotoxicity against a specific type of tumor cells or tumor panels.
(§3) The antitumor cytotoxicity of the thiophene compounds tested in the first two in vitro assays was measured by a microculture assay using either 3-(4,5-dimethylthiazol-2-yl)-2,5-diphenyltetrazolium bromide (MTT) or sulforhodamine B (SRB). [M. R. Boyd in "Principles and Practices of Oncology," V. T. DeVita, Jr., S. Hellman and S. A. Rosenberg (Eds.), Vol. 3, PPO Updates, Number 10, 1989.] This assay has an advantage over in vivo assay in that results are obtained within a week as opposed to several months. The assay was carried out in 96-well microtiter plates. The MTT assay is based on the production of a dark blue formazan product by dehydrogenase in the mitochondria of live tumor cells after exposure to drug for 6 days [M. C. Alley, D. A. Scudiero, A. Monks, M. L. Hursey, M. J. Czerwinski, D. L. Fine, B. J. Abbott, J. G. Mayo, R. H. Shoemaker and M. R. Boyd, Cancer Res., 48, 589, 1988.] Thus, only live cells are stained and can be measured at 570 nm. The SRB assay is based on the binding of the anionic group to the basic amino acid residues of cellular proteins after exposure of tumor cells to drug for 2 days [P. Skehan, R. Storeng, D. Scudiero, A. Monks, J. McMahon, D. Vistica, J. T. Warren, H. Bohesch, S. Kenney and M. R. Boyd, J. Nat. Cancer Inst., 82, 1107, 1990.] Thus, the total protein (viability) can be measured at 564 nm.

[8] = tested on: SW-620 colon cancer cells; conditions: Homo sapiens, read-out: Log10 GI50 (converted)
Experimental: as §1, §2, §3

MALME-3M melanoma cells = conditions: read-out: Log10 GI50 (converted)
[9] = tested on: T-47D breast cancer cells; conditions: T47D, read-out: Log10 GI50 (converted)
Experimental: The assay was carried out in 96-well microtiter plates. The MTT assay is based on the production of a dark blue formazan product by dehydrogenase in the mitochondria of live tumor cells after exposure to drug for 6 days [M. C. […] The SRB assay is based on the binding of the anionic group to the basic amino acid residues of cellular proteins after exposure of tumor cells to drug for 2 days [P. Skehan, R. Storeng, D. Scudiero, A. Monks, J. McMahon, D. Vistica, J. T. Warren, H. Bohesch, S. Kenney and M. R. Boyd, J. Nat.

SNB-19 CNS cancer cells = conditions: Homo sapiens, read-out: Log10 GI50 (converted)
[10] = tested on: COLO-205 colon cancer cells; conditions: Homo sapiens
SNB-75 CNS cancer cells = conditions: Homo sapiens, read-out: Log10 GI50 (converted)
[11] = tested on: HCC-2998 colon cancer cells; conditions: Homo sapiens, read-out: Log10 GI50 (converted)
[12] = tested on: RXF-393 renal cancer cells; conditions: Homo sapiens, read-out: Log10 GI50 (converted)
[13] = tested on: CAKI-1 renal cancer cells; conditions: Homo sapiens; CAKI-1, renal cancer; read-out: Log10 GI50 (converted)
HOP-62 lung cancer cells = conditions: Homo sapiens, read-out: Log10 GI50 (converted)
M-14 melanoma cells = conditions: M14, read-out: Log10 GI50 (converted)
[14] = tested on: OVCAR-5 ovarian cancer cells; conditions: Homo sapiens, read-out: Log10 GI50 (converted)
786-0 renal cancer cells = conditions: read-out: Log10 GI50 (converted)
SK-MEL-5 melanoma cells = conditions: read-out: Log10 GI50 (converted)
Description: (§4) The cytotoxic activity of the present polythiophene compounds have been measured utilizing three different assays or screens. The first screen measures the cytotoxicity against a panel of sixty different human tumor cell lines. This assay provides data regarding the general cytotoxicity of an individual compound. In particular this type of assay is useful in identifying compounds which have enhanced cytotoxic activity against slow growing tumors as compared to faster growing tumor cells such as leukemia tumor cell lines. The identification of such compounds is critical since previously identified antitumor agents have low cytotoxic activity against slower growing tumors. […] The specificity of a cytotoxic compound for tumor cell lines relative to normal cells is an important characteristic of an effective antitumor agent.
as §2, §3

HOP-92 lung cancer cells = conditions: Homo sapiens, read-out: Log10 GI50 (converted)
Description: as §4, §2, §3

SK-MEL-28 melanoma cells = conditions: read-out: Log10 GI50 (converted)
Description: as §4, §2, §3

[15] = tested on: OVCAR-4 ovarian cancer cells; conditions: Homo sapiens, read-out: Log10 GI50 (converted)
Description: as §4, §2, §3

KM12 colon cancer cells = conditions: Homo sapiens, read-out: Log10 GI50 (converted)
Description: as §4, §2, §3

[16] = tested on: MDA-N breast cancer cells; conditions: read-out: Log10 GI50 (converted)
Description: as §4, §2, §3

[17] = tested on: MDA-MB-231/ATCC breast cancer cells; conditions: read-out: Log10 GI50 (converted)
Description: as §4, §2, §3

[18] = tested on: DU-145 prostate cancer cells; conditions: read-out: Log10 GI50 (converted)
Description: as §4, §2, §3

[19] = tested on: PC-3 prostate cancer cells; conditions: read-out: Log10 GI50 (converted)
Description: as §4, §2, §3

MCF7 breast cancer cells = conditions: read-out: Log10 GI50 (converted)
Description: as §4, §2, §3

TK-10 renal cancer cells = conditions: Homo sapiens, read-out: Log10 GI50 (converted)
[20] = tested on: IGROV-1 ovarian cancer cells; conditions: Homo sapiens, read-out: Log10 GI50 (converted)
SK-MEL-2 melanoma cells = conditions: read-out: Log10 GI50 (converted)
ACHN renal cancer cells = conditions: read-out: Log10 GI50 (converted)
UACC-62 melanoma cells = conditions: Homo sapiens, read-out: Log10 GI50 (converted)
[21] = tested on: MDA-MB-435 breast cancer cells; conditions: read-out: Log10 GI50 (converted)
Description: as §4, §2, §3

SF-539 CNS cancer cells = conditions: read-out: Log10 GI50 (converted)
Description: as §4, §2, §3

[22] = tested on: MCF7/ADR-RES breast cancer cells; conditions: read-out: Log10 GI50 (converted)
Description: as §4, §2, §3

[23] = tested on: HS 578T breast cancer cells; conditions: read-out: Log10 GI50 (converted)
Description: as §4, §2, §3

[24] = tested on: BT-549 breast cancer cells; conditions: read-out: Log10 GI50 (converted)
Description: as §4, §2, §3

LOX IMVI melanoma cells = conditions: read-out: Log10 GI50 (converted)
[25] = tested on: NCI-H226 lung cancer cells; conditions: Homo sapiens, read-out: Log10 GI50 (converted)

Q: For `OCc1ccc(-c2ccc(-c3ccsc3)s2)s1` [drawing 37], which GI50 (HT29 colon cancer cells) is on record?
A: 13.8 µM

Q: What about the GI50 (UACC-257 melanoma cells) of the same compound?
A: 0.191 µM

Q: And the GI50 [1]?
A: 25.1 µM

Q: And the GI50 (U251 CNS cancer cells)?
A: 10.7 µM

Q: And the GI50 [2]?
A: 0.158 µM

Q: What about the GI50 [3] of the same compound?
A: 0.363 µM

Q: What about the GI50 [4] of the same compound?
A: 24 µM

Q: And the GI50 (SF-295 CNS cancer cells)?
A: 35.5 µM

Q: What about the GI50 [5] of the same compound?
A: 58.9 µM

Q: And the GI50 (A-498 renal cancer cells)?
A: 0.115 µM

Q: And the GI50 (SF-268 CNS cancer cells)?
A: 53.7 µM

Q: What about the GI50 [6] of the same compound?
A: 16.2 µM

Q: And the GI50 [7]?
A: 57.5 µM

Q: What about the GI50 [8] of the same compound?
A: 47.9 µM

Q: And the GI50 (MALME-3M melanoma cells)?
A: 38.9 µM

Q: What about the GI50 [9] of the same compound?
A: 0.339 µM

Q: What about the GI50 (SNB-19 CNS cancer cells) of the same compound?
A: 33.1 µM

Q: And the GI50 ([10]; COLO 205, read-out: Log10 GI50 (converted))?
A: 0.912 µM

Q: What about the GI50 (SNB-75 CNS cancer cells) of the same compound?
A: 30.9 µM

Q: What about the GI50 [11] of the same compound?
A: 0.977 µM

Q: And the GI50 [12]?
A: 20.4 µM

Q: What about the GI50 [13] of the same compound?
A: 0.0229 µM

Q: And the GI50 (HOP-62 lung cancer cells)?
A: 20.4 µM

Q: What about the GI50 (M-14 melanoma cells) of the same compound?
A: 42.7 µM

Q: And the GI50 [14]?
A: 0.417 µM

Q: What about the GI50 (786-0 renal cancer cells) of the same compound?
A: 57.5 µM

Q: And the GI50 (SK-MEL-5 melanoma cells)?
A: 41.7 µM

Q: And the GI50 (HOP-92 lung cancer cells)?
A: 38.9 µM

Q: What about the GI50 (SK-MEL-28 melanoma cells) of the same compound?
A: 36.3 µM

Q: What about the GI50 [15] of the same compound?
A: 25.1 µM

Q: And the GI50 (KM12 colon cancer cells)?
A: 83.2 µM

Q: What about the GI50 [16] of the same compound?
A: 0.501 µM

Q: And the GI50 [17]?
A: 28.2 µM

Q: And the GI50 [18]?
A: 66.1 µM

Q: And the GI50 [19]?
A: 51.3 µM

Q: And the GI50 (MCF7 breast cancer cells)?
A: 0.257 µM

Q: And the GI50 (TK-10 renal cancer cells)?
A: 0.204 µM

Q: And the GI50 [20]?
A: 0.219 µM

Q: Which results are given for `OCc1csc(-c2ccc(-c3ccc(CO)s3)s2)c1` [drawing 38]?
A: GI50 (HT29 colon cancer cells): 0.234 µM; GI50 (UACC-257 melanoma cells): 0.038 µM; GI50 [1]: 0.0389 µM; GI50 (U251 CNS cancer cells): 5.62 µM; GI50 (SK-MEL-2 melanoma cells): > 10 µM; GI50 [2]: 0.0692 µM; GI50 [3]: 0.107 µM; GI50 [4]: > 10 µM; GI50 (SF-295 CNS cancer cells): > 10 µM; GI50 [5]: > 10 µM; GI50 (A-498 renal cancer cells): 0.0158 µM; GI50 (ACHN renal cancer cells): > 10 µM; GI50 (SF-268 CNS cancer cells): > 10 µM; GI50 [6]: 4.27 µM; GI50 [7]: > 10 µM; GI50 (MALME-3M melanoma cells): > 10 µM; GI50 [9]: 0.224 µM; GI50 (SNB-19 CNS cancer cells): > 10 µM; GI50 ([10]; COLO-205, colon cancer, read-out: Log10 GI50 (converted)): 0.191 µM; GI50 (SNB-75 CNS cancer cells): 2 µM; GI50 [11]: 5.89 µM; GI50 [12]: > 10 µM; GI50 [13]: 0.0251 µM; GI50 (UACC-62 melanoma cells): 0.182 µM; GI50 (M-14 melanoma cells): > 10 µM; GI50 [14]: 0.126 µM; GI50 [21]: 4.37 µM; GI50 (SK-MEL-5 melanoma cells): > 10 µM; GI50 (HOP-92 lung cancer cells): 9.33 µM; GI50 (SK-MEL-28 melanoma cells): > 10 µM; GI50 (SF-539 CNS cancer cells): > 10 µM; GI50 [22]: > 10 µM; GI50 [23]: 7.76 µM; GI50 [15]: 0.302 µM; GI50 (KM12 colon cancer cells): > 10 µM; GI50 [16]: 9.55 µM; GI50 [17]: > 10 µM; GI50 [18]: > 10 µM; GI50 [19]: > 10 µM; GI50 [24]: > 10 µM; GI50 (MCF7 breast cancer cells): 0.138 µM; GI50 (LOX IMVI melanoma cells): > 10 µM; GI50 (TK-10 renal cancer cells): 0.0794 µM; GI50 [25]: 0.0141 µM; GI50 [20]: 0.145 µM
